According to PMC11676204:
pIC50: −log10 of the molar value. Read-outs that look alike come from different tables or passages of the source.

Experiments:
[1] = tested on: methyl predenisolone-induced hypertensive rats; experiment: Antihypertensive activity, non-invasive tail-cuff method; type: in vivo, rat; parameters: Systolic BP / Diastolic BP: unit not given here; conditions: for Diastolic BP / Heart Rate / MABP / Systolic BP: methyl predenisolone 20 mg/kg/week rats, n = 4, mean ± S.E.M.
Description: After recording the initial BP of rats, the animals were divided into seven groups of four animals each. One group was chosen as the control group. The remaining groups were given a subcutaneous injection of methyl-predenisolone acetate (20 mg/kg/week) for one week, as described by Ekerbicer, N et al.. […] In total, 28 animals were evenly divided into 7 groups of 4 animals each to attain maximum balance of subjects across experimental conditions. […] Animals in group II (hypertensive control) were injected methylprednisolone acetate (20 mg/kg/week) intraperitoneally for hypertension induction, creating a baseline model of plateau hypertension. Animals in Group III were administered with 20 mg/kg/week intraperitoneal injection of methylprednisolone treated with captopril at an oral dosage of 5 mg/kg/day. For Group IV, the basal dosage of methylprednisolone was provided along with a higher dosage of captopril (10 mg/kg/day by oral route). […] The inclusion of multiple treatment groups with varying doses provided insights into the relative efficacy and dose-response relationship of the interventions. Randomization was done by block randomization, ensuring without bias these allocations of animals into groups. Before intervention, baseline characteristics such as weight, age, or sex of animals were determined, and t-test or ANOVA was used to affirm that no significant difference between groups existed. The SYRCLE’s Risk of Bias tool analyzed potential biases across various domains like selection, performance, and detection bias; each domain was rated according to low, high, or unclear risk.
The CODA Non-Invasive Blood Pressure Recorder (Kent Scientific Corporation, Torrington, CT, USA) was used to measure mean arterial blood pressure in conscious rats using the tail-cuff method. With the rat’s tail protruding, the restrainer was inserted in the BP instrument. […] The tail was gently pressed against a transducer membrane that was linked to the digital BP display panel. After that, the device was turned on and stabilized until a consistent pulse rate was seen. […] In this investigation, albino rats (body weight 150–200 g) were employed. Rats were divided into four groups, each with four individuals. […] After 1 h, the mean arterial blood pressure was measured.
Statistical analysis was carried out by one-way analysis of variance followed by Dunnet’s multiple comparison test using GraphPad InStat 3 (Graph Pad Software Inc., San Diego, CA, USA). All values were expressed as mean ± standard error of the mean (SEM). All groups were compared with hypertensive control animals. p-value of <0.01 was statistically significant.

[2] = Pharmacokinetics after oral administration (plasma, UV spectrophotometry at 340 nm); type: in vivo; conditions: rat; for Cmax / MRT / AUC(0-t): plasma; for AUC(0-t): read-out: AUC 0–7 (converted)
Description: In accordance with the ICH guidelines Q2 (R1) (2005) standard calibration curves, regression equations, and values for LOD and LOQ for each compound were validated with UV spectrophotometric method. Various parameters, such as linearity, precision, limit of detection, and limit of quantification, were considered for the method validation. […] The rats were orally administered (10, 20, and 40 mg/Kg body weight, n = 3) using a 20 G gavage needle. The animals were given a standard diet 4 h after the dosing, and blood samples were collected (approximately 400 μL) from each animal and placed into heparinized tubes before the dosing and at 0, 30, 60, 120, 180, 240, 300, 360, and 420 min after the dosing. Plasma (100 μL) was separated by centrifuging blood samples at 3600 rpm for 10 min at room temperature, followed by immediate processing for the analyses.
Plasma concentration by the compound was measured by UV spectrophotometry at 340 nm and validated per ICH requirements. […] The precision studies gave % RSD less than 2 for intra-day and inter-day variations, and recovery studies were between 97–99%, indicating the reliability of method.
The plasma concentration–time graph obtained after oral administrations were subjected to non-compartmental analyses based on the statistical moment theory, as shown in Figure 6 and Table 4. Pharmacokinetic parameters were calculated using WinNorlin 5.2 (Certara; available at www.certara.com, accessed on 20 November 2024). The parameters obtained include maximum plasma concentration (Cmax), the time to reach Cmax (Tmax), the elimination half-life (t1/2), the area under the plasma concentration–time curve from time zero to infinity (AUC0–∞), the area under the plasma concentration–time curve from time zero to 420 min AUC0–7, the mean residence time (MRT), and clearance (CL).

[3] = target: ACE enzyme (Homo sapiens, UniProt P12821); experiment: ACE inhibition assay (absorbance at 340 nm)
ACE enzyme, sequence (P12821 30-1306, species assumed): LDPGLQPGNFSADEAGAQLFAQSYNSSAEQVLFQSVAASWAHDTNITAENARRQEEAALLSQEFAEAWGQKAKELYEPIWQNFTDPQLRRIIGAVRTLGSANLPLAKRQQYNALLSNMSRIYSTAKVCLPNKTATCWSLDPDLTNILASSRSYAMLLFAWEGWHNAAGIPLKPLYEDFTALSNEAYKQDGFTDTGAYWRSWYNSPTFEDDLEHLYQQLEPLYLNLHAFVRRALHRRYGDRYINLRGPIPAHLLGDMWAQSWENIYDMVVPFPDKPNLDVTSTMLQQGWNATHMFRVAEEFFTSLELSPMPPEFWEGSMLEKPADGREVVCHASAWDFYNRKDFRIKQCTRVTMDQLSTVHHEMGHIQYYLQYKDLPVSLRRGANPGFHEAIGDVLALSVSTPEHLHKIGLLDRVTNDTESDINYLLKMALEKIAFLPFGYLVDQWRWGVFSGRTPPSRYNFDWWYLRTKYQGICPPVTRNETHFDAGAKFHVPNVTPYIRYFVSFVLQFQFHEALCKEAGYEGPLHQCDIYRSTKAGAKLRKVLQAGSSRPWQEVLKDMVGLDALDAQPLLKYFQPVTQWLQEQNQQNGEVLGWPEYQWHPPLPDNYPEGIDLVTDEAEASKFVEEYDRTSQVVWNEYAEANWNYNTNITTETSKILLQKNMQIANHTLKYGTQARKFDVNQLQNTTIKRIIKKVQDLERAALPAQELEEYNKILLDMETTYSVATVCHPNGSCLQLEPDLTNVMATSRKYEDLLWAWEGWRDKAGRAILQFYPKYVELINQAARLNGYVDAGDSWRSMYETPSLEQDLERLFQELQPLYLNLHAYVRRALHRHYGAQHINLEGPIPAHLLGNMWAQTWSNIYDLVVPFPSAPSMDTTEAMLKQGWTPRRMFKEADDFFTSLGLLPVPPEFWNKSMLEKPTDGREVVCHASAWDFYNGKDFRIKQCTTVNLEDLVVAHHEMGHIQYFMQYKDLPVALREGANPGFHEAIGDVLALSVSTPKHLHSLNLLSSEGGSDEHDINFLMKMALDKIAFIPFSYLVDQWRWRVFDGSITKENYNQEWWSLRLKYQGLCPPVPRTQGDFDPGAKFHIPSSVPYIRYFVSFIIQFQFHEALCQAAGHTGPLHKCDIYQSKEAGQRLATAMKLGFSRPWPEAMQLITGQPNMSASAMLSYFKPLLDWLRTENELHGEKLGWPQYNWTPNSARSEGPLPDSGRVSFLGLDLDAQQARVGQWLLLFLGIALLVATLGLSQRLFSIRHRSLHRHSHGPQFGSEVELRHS
Description: The enzyme solution and substrate were prepared under standard protocols, and the assay was performed in 96-well plates wherein the ACE enzyme and inhibitor were mixed with the substrate. The reaction was incubated at 37 °C for 30 min, after which the ACE activity was determined by measuring the absorbance at 340 nm that correlated with the product formation and enzyme activity [36]. The IC₅₀ values that specify inhibition at 50% concentration were generated from concentration-inhibition data. The percentage inhibition was calculated using the formula:Percentage Inhibition (%) = (A − C)/ (A − B) ∗ 100 where A is the absorbance of the negative control (substrate and enzyme), B is the absorbance of the blank (buffer only) and C is the absorbance of the sample (enzyme, substrate and sample). For the positive control, captopril was used instead of a sample and was considered as C.

Compound: COc1cc2oc(-c3ccc(O)cc3)c(OC3OC(CO)C(O)C(O)C3O)c(=O)c2c(O)c1OC (stereo not shown)
- Diastolic BP ([1]; 10 mg/kg): 126.99 ± 6.80
- Heart Rate ([1]; 10 mg/kg): 443.99 ± 15.12 Beats/min
- MABP ([1]; 10 mg/kg): 144.4 ± 4.59 mmHg
- Systolic BP ([1]; 10 mg/kg): 179.19 ± 7.18
- Diastolic BP ([1]; 20 mg/kg oral): 110.88 ± 10.28
- Heart Rate ([1]; 20 mg/kg oral): 430.66 ± 10.5 Beats/min
- MABP ([1]; 20 mg/kg oral): 120.1 ± 5.1 mmHg
- Systolic BP ([1]; 20 mg/kg oral): 138.44 ± 7.09
- Diastolic BP ([1]; 40 mg/kg oral): 85.76 ± 7.4
- Heart Rate ([1]; 40 mg/kg oral): 408.99 ± 9.0 Beats/min
- MABP ([1]; 40 mg/kg oral): 95.53 ± 7.5 mmHg
- Systolic BP ([1]; 40 mg/kg oral): 114.99 ± 5.8
- blood pressure in treated rats ([1]; 10, 20 and 40 mg/kg): dose-dependent decrease in blood pressure
- systolic and diastolic blood pressures compared with vehicle ([1]; methyl predenisolone-induced hypertensive rats, p < 0.01): significantly lower
- Cmax ([2]; 10 mg/kg b.w. oral): 100 µg/mL
- MRT ([2]; 10 mg/kg b.w. oral): 3.05 h
- AUC(0-t) ([2]; 10 mg/kg b.w. oral): 438 µg·h/mL
- Cmax ([2]; 20 mg/kg b.w. oral): 119 µg/mL
- MRT ([2]; 20 mg/kg b.w. oral): 2.98 h
- AUC(0-t) ([2]; 20 mg/kg b.w. oral): 499 µg·h/mL
- Cmax ([2]; 40 mg/kg b.w. oral): 125 µg/mL
- MRT ([2]; 40 mg/kg b.w. oral): 3.04 h
- AUC(0-t) ([2]; 40 mg/kg b.w. oral): 539 µg·h/mL
- Elimination Rate ([2]; 10 mg/kg b.w. oral): 0.0001236 h⁻¹
- Elimination Rate ([2]; 20 mg/kg b.w. oral): 0.0006846 h⁻¹
- Elimination Rate ([2]; 40 mg/kg b.w. oral): 0.0002917 h⁻¹
- bioavailability ([2]; oral): moderate
- pIC50 [3]: ~4.70
- inhibition at 100 µM ([3]; read-out: maximum ACE inhibition): ~82%

Compound: C[C@H](CS)C(=O)N1CCC[C@H]1C(=O)O [Captopril, captopril, reference compound]
- Diastolic BP ([1]; 5 mg/kg): 117.8 ± 11.19
- Heart Rate ([1]; 5 mg/kg): 507.11 ± 6.13 Beats/min
- MABP ([1]; 5 mg/kg): 126.19 ± 11.10 mmHg
- Systolic BP ([1]; 5 mg/kg): 142.99 ± 10.88
- Diastolic BP ([1]; 10 mg/kg): 98.66 ± 10.18
- Heart Rate ([1]; 10 mg/kg): 421.78 ± 12.0 Beats/min
- MABP ([1]; 10 mg/kg): 112.6 ± 5.17 mmHg
- Systolic BP ([1]; 10 mg/kg): 136.77 ± 6.13
